≈ marks a conversion by molar mass, not a printed value. Counter-ions that a name gives are not always drawn.
Legend:
Format in all cases: physicochemical
[1] = Exploration of solubility: 300 mg slurry in solvent (10 V) at 15~20° C.; conditions: for solubility: 15 °C, organic solvent or mixture, thermodynamic from solid; for solubility / Solubility (mg/mL): 300 mg slurry at 15~20° C.
Source text: Exploration of Step 3: Amide Formation. Exploration of Product Solubility.
Exploration of the Solubility of 4 in Various Solvents.

[2] = Exploration of product stability in alkaline conditions; conditions: for Assay: 15~25° C.
Source text: Exploration of Product Stability in Alkaline Conditions.

[3] = Exploration of solvent for filtration: 5a slurry in solvent; conditions: 500 mg slurry, HCl (EtOH) charged, 15˜25° C. for 20 h
Experimental: Exploration of Solvent for Filtration.
Experiments were performed 15˜25° C. for 20 h.

COC(=O)CC[C@H](NC(=O)c1ccc(-n2ccnn2)cc1)C(=O)N1CCN(C)CC1 [Compound 3, methyl (4S)-4-[4-(1H-1,2,3-triazol-1-yl)benzoylamino]-5-(4-methylpiperazin-1-yl)-5-oxopentanoate]
solubility ([1]; Acetonitrile (10 V)): 29500 µg/mL (≈ 71.2 mM) | solubility ([1]; EtOAc (10 V)): 9000 µg/mL (≈ 21.7 mM) | solubility ([1]; EtOH (10 V)): 22500 µg/mL (≈ 54.3 mM) | solubility ([1]; IPA (10 V)): 14100 µg/mL (≈ 34 mM) | solubility ([1]; IPAc (10 V)): 4800 µg/mL (≈ 11.6 mM) | solubility ([1]; MTBE (10 V)): 600 µg/mL (≈ 1.45 mM) | solubility ([1]; THF (10 V)): 84200 µg/mL (≈ 203 mM) | Solubility (mg/mL) ([1]; DCM (10 V)): Dissolved completely | Solubility (mg/mL) ([1]; Heptane (10 V)): insoluble | Solubility (mg/mL) ([1]; MeOH (10 V)): Dissolved completely | solubility (conclusion) ([1]; in DCM, THF or MeOH): good solubility | Assay ([2]; 1.0 g, pH 9-10 with 6M LiOH aqueous solution, 0 h): 1.0 g | Assay ([2]; 1.0 g, pH 9-10 with 6M LiOH aqueous solution, +10 h): 1.0 g | Assay ([2]; 1.0 g, pH 9-10 with 6M LiOH aqueous solution, +24 h (first)): 1.0 g | Assay ([2]; 1.0 g, pH 9-10 with 6M LiOH aqueous solution, +24 h (second)): 1.0 g | Assay ([2]; 1.0 g, pH 9-10 with 10 wt. % K2CO3 aqueous solution, 0 h): 1.0 g | Assay ([2]; 1.0 g, pH 9-10 with 10 wt. % K2CO3 aqueous solution, +10 h): 0.90 g | Assay ([2]; 1.0 g, pH 9-10 with 10 wt. % K2CO3 aqueous solution, +24 h (first)): 0.87 g | Assay ([2]; 1.0 g, pH 9-10 with 10 wt. % K2CO3 aqueous solution, +24 h (second)): 0.87 g | Assay ([2]; 1.0 g, pH 9-10 with 10 wt. % Na2CO3 aqueous solution, 0 h): 1.0 g | Assay ([2]; 1.0 g, pH 9-10 with 10 wt. % Na2CO3 aqueous solution, +10 h): 0.99 g | Assay ([2]; 1.0 g, pH 9-10 with 10 wt. % Na2CO3 aqueous solution, +24 h (first)): 0.97 g | Assay ([2]; 1.0 g, pH 9-10 with 10 wt. % Na2CO3 aqueous solution, +24 h (second)): 0.99 g | Assay ([2]; 1.0 g, pH 9-10 with 10 wt. % NaOH aqueous solution, 0 h): 1.0 g | Assay ([2]; 1.0 g, pH 9-10 with 10 wt. % NaOH aqueous solution, +10 h): 1.0 g | Assay ([2]; 1.0 g, pH 9-10 with 10 wt. % NaOH aqueous solution, +24 h (first)): 1.0 g | Assay ([2]; 1.0 g, pH 9-10 with 10 wt. % NaOH aqueous solution, +24 h (second)): 1.0 g | Assay ([2]; 1.1 g, pH 10-11 with NaOH aqueous solution (6N), 0 h): 0.7 g | Assay ([2]; 1.1 g, pH 10-11 with NaOH aqueous solution (6N), +7 h (after +20 h)): 0.4 g | Assay ([2]; 1.1 g, pH 10-11 with NaOH aqueous solution (6N), +20 h): 0.5 g | Assay ([2]; 1.1 g, pH 10-11 with NaOH aqueous solution (6N), +24 h (first, after +7 h)): 0.3 g | Assay ([2]; 1.1 g, pH 10-11 with NaOH aqueous solution (6N), +24 h (second)): 0.2 g | stability (conclusion) ([2]; in the presence of K2CO3): relatively instable | stability (conclusion) ([2]; pH>10 in basic aqueous solution): not stable | stability (conclusion) ([2]; weak basic aqueous solution, pH=9-10): relatively stable

CN1CCN(C(=O)[C@H](CCC(=O)O)NC(=O)c2ccc(-n3ccnn3)cc2)CC1 [Compound 4, (4S)-4-[4-(1H-1,2,3-triazol-1-yl)benzoylamino]-5-(4-methylpiperazin-1-yl)-5-oxopentanoic Acid]
solubility ([1]; Acetonitrile (10 V)): 400 µg/mL (≈ 0.999 mM) | solubility ([1]; DCM (10 V)): 1000 µg/mL (≈ 2.5 mM) | solubility ([1]; EtOAc (10 V)): 400 µg/mL (≈ 0.999 mM) | solubility ([1]; EtOH (10 V)): 4000 µg/mL (≈ 9.99 mM) | solubility ([1]; IPA (10 V)): 900 µg/mL (≈ 2.25 mM) | solubility ([1]; IPAc (10 V)): 1000 µg/mL (≈ 2.5 mM) | solubility ([1]; MeOH (10 V)): 37000 µg/mL (≈ 92.4 mM) | solubility ([1]; THF (10 V)): 1200 µg/mL (≈ 3 mM) | stability in MeOH (conclusion of the solubility table) ([1]; MeOH): high stability | solubility (conclusion) ([1]; other tested solvents (than MeOH)): lower solubility

CCCCCCCCCCCCSC(=O)CC[C@H](NC(=O)c1ccc(-n2ccnn2)cc1)C(=O)N1CCN(C)CC1 [Compound 5a, dodecyl (4S)-4-[4-(1H-1,2,3-triazol-1-yl)benzoylamino]-5-(4-methyl-piperazin-1-yl)-5-oxopentanethioate Hydrochloride Salt]
Result (solubility) ([3]; DMSO (20 V)): Soluble | Result (solubility) ([3]; NMP (20 V)): Soluble
